In this test the target is ROCK2 (Homo sapiens (Human), UniProt O75116).
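Also: rho kinase enzyme reaction halted with EDTA, phospho- and non-phospho peptide separated for read-out, kinase activity inhibition derived across a dose-response series, DMSO under 2%.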

Sequence of ROCK2 (O75116 whole entry, species assumed): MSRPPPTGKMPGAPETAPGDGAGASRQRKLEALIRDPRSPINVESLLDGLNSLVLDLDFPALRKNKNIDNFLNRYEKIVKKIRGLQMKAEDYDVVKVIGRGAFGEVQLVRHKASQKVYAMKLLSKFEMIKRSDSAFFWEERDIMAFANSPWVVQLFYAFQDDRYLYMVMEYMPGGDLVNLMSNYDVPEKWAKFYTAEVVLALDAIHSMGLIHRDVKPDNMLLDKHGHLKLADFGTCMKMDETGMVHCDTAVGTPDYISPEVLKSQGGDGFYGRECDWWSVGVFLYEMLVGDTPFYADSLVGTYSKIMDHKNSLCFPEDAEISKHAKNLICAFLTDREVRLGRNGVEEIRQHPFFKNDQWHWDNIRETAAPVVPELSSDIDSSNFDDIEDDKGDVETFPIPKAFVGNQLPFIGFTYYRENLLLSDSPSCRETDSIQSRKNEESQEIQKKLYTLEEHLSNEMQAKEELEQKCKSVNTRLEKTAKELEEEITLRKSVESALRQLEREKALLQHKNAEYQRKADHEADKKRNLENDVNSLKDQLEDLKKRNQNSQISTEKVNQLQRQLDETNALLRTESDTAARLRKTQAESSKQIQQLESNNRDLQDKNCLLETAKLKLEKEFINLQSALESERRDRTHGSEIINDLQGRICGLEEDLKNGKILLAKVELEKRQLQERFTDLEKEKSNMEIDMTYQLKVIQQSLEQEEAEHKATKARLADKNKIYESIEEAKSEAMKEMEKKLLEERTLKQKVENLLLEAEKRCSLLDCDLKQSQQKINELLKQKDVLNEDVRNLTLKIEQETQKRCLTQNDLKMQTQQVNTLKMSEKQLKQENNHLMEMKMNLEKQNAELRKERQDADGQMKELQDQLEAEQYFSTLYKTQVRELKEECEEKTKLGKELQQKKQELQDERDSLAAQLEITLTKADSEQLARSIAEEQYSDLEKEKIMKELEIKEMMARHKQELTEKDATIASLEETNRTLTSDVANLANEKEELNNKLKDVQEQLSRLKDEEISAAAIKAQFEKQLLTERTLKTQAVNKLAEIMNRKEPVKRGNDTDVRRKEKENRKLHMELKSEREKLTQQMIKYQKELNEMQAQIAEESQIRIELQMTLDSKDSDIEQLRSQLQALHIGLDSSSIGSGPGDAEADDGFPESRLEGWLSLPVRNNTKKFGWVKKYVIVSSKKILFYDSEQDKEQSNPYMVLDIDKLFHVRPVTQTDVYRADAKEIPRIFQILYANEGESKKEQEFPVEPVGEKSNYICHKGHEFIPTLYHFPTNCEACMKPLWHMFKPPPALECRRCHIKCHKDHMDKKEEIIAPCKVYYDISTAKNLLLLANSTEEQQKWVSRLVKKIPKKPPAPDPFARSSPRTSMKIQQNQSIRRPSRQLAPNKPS

As for `COc1cccc(NC2CCN(c3ccc(-c4cn[nH]c4)c(C(F)(F)F)c3)C2=O)c1` (single isomer, unassigned) [Example 368, 1-(4-(1H-pyrazol-4-yl)-3-(trifluoromethyl)phenyl)-3-((3-methoxyphenyl)amino) pyrrolidin-2-one], the IC50 (in general, the concentration that inhibits the measured activity by half) was 100 to 2200 nM. The result for `COc1cc(F)cc(NC2CCN(c3ccc(-c4cn[nH]c4)c(OC)c3)C2=O)c1` (single isomer, unassigned) [Example 138, 3-((3-fluoro-5-methoxyphenyl)amino)-1-(3-methoxy-4-(1H-pyrazol-4-yl)phenyl) pyrrolidin-2-one] reads less than 10 nM; that for `COc1cc(NC2CCN(c3ccc(-c4cn[nH]c4)cc3Cl)C2=O)ccc1F` (single isomer, unassigned) [Example 163, 1-(2-chloro-4-(1H-pyrazol-4-yl)phenyl)-3-((4-fluoro-3-methoxyphenyl)amino) pyrrolidin-2-one], 100 to 2200 nM. Molecule `COc1cccc(NC2CCN(c3ccc(-c4cn[nH]c4)c(OC)c3)C2=O)c1` (single isomer, unassigned) [Example 75, 1-(3-methoxy-4-(1H-pyrazol-4-yl)phenyl)-3-((3-methoxyphenyl)amino)pyrrolidin-2-one] displayed an IC50 of less than 10 nM. Under `COc1ccc(F)c(NC2CCN(c3ccc(-c4cn[nH]c4)c(OC)c3)C2=O)c1` (single isomer, unassigned) [Example 149, 3-((2-fluoro-5-methoxyphenyl)amino)-1-(3-methoxy-4-(1H-pyrazol-4-yl)phenyl) pyrrolidin-2-one] stands 10 to 100 nM; under `COc1cccc(NC2CCN(c3ccc(-c4cn[nH]c4)cc3Cl)C2=O)c1` (single isomer, unassigned) [Example 167, 1-(2-chloro-4-(1H-pyrazo1-4-yl)phenyl)-3 ((3-methoxyphenyl)amino)pyrrolidin-2-one], 100 to 2200 nM. `COc1cccc(NC2CCN(c3cc(F)c(-c4cn[nH]c4)c(F)c3)C2=O)c1` (single isomer, unassigned) [Example 312, 1-(3,5-difluoro-4-(1H-pyrazol-4-yl)phenyl)-3-((3-methoxyphenyl)amino)pyrrolidin-2-one] displayed an IC50 of less than 10 nM. `COc1ccc(NC2CCN(c3ccc(-c4cn[nH]c4)c(OC)c3)C2=O)c(F)c1` (single isomer, unassigned) [Example 153, 3-((2-fluoro-4-methoxyphenyl)amino)-1-(3-methoxy-4-(1H-pyrazol-4-yl)phenyl) pyrrolidin-2-one] yielded an IC50 of 100 to 2200 nM. The result for `CNc1nc(N2CCC(Nc3cccc(OC)c3)C2=O)ccc1-c1cn[nH]c1` (single isomer, unassigned) [Example 254, 3-((3-methoxyphenyl)amino)-1-(6-(methylamino)-5-(1H-pyrazol-4-yl)pyridin-2-yl)pyrrolidin-2-one] reads 10 to 100 nM; that for `COc1cc(NC2CCN(c3ccc(-c4cn[nH]c4)cc3)C2=O)cc(OC)c1` (single isomer, unassigned) [Example 22, 1-(4-(1H-pyrazol-4-yl)phenyl)-3-((3,5-dimethoxyphenyl)amino)pyrrolidin-2-one], 100 to 2200 nM. The result for `COc1cccc(NC2CCN(c3cc(F)c(-c4cn[nH]c4)cc3F)C2=O)c1` (single isomer, unassigned) [Example 354, 1-(2,5-difluoro-4-(1H-pyrazol-4-yl)phenyl)-3-((3-methoxyphenyl)amino)pyrrolidin-2-one] reads 10 to 100 nM. The result for `CCc1nc(N2CCC(Nc3cccc(OC)c3)C2=O)ccc1-c1cn[nH]c1` (single isomer, unassigned) [Example 314, 1-(6-ethyl-5-(1H-pyrazol-4-yl)pyridin-2-yl)-3-((3-methoxyphenyl)amino) pyrrolidin-2-one] reads less than 10 nM; that for `Cc1nc(N2CCC(Nc3cccc(OC(F)F)c3)C2=O)ccc1-c1cn[nH]c1` (single isomer, unassigned) [Example 202, 3-((3-(difluoromethoxy)phenyl)amino)-1-(6-methyl-5-(1H-pyrazol-4-yl)pyridin-2-yl)pyrrolidin-2-one], 10 to 100 nM; that for `COc1cc(F)cc(NC2CCN(c3ccc(-c4cn[nH]c4)c(F)c3)C2=O)c1` (single isomer, unassigned) [Example 50, 1-(3-fluoro-4-(1 H-pyrazol-4-yl)phenyl)-3-((3-fluoro-5-methoxyphenyl)amino)pyrrolidin-2-one], less than 10 nM.

Turning to `COc1cc(NC2CCN(c3ccc(-c4cn[nH]c4)c(F)c3)C2=O)ccc1F` (single isomer, unassigned) [Example 333, 3-((4-fluoro-3-methoxyphenyl)amino)-1-(3-fluoro-4-(1H-pyrazol-4-yl)phenyl) pyrrolidin-2-one], the IC50 is less than 10 nM. As for `COc1ccc(NC2CCN(c3ccc(-c4cn[nH]c4)cc3F)C2=O)cc1F` (single isomer, unassigned) [Example 345, 1-(2-fluoro-4-(1H-pyrazol-4-yl)phenyl)-3-((3-fluoro-4-methoxyphenyl)amino) pyrrolidin-2-one], the IC50 fell in the range of 100 to 2200 nM. `COc1ccc(NC2CCN(c3ccc(-c4cn[nH]c4)c(OC)c3)C2=O)cc1F` (single isomer, unassigned) [Example 142, 3-((3-fluoro-4-methoxyphenyl)amino)-1-(3-methoxy-4-(1H-pyrazol-4-yl)phenyl) pyrrolidin-2-one] displayed an IC50 of 100 to 2200 nM.

Take `COc1cccc(NC2CCN(c3ccc(-c4cn[nH]c4)cc3F)C2=O)c1` (single isomer, unassigned) [Example 329, 1-(2-fluoro-4-(1H-pyrazol-4-yl)phenyl)-3-((3-methoxyphenyl)amino)pyrrolidin-2-one]: the IC50 was in the range of 10 to 100 nM. On to `CCOc1cc(N2CCC(Nc3ccc(F)c(OC)c3)C2=O)ccc1-c1cn[nH]c1` (single isomer, unassigned) [Example 39, 1-(3-ethoxy-4-(1H-pyrazol-4-yl)phenyl)-3-((4-fluoro-3-methoxyphenyl)amino)pyrrolidin-2-one], for which the IC50 lay within 10 to 100 nM. The result for `COc1nc(N2CCC(Nc3cccc(OC(F)F)c3)C2=O)ccc1-c1cn[nH]c1` (single isomer, unassigned) [Example 221, 3-((3-(difluoromethoxy)phenyl)amino)-1-(6-methoxy-5-(1H-pyrazol-4-yl)pyridin-2-yl)pyrrolidin-2-one] reads less than 10 nM.

`COc1cccc(NC2CCN(c3ccc(-c4cn[nH]c4)c(OC)n3)C2=O)c1` (single isomer, unassigned) [Example 197, 1-(6-methoxy-5-(1H-pyrazol-4-yl)pyridin-2-yl)-3-((3-methoxyphenyl)amino) pyrrolidin-2-one]: the IC50 was less than 10 nM. `COc1ccc(NC2CCN(c3ccc(-c4cn[nH]c4)cc3)C2=O)c(F)c1` (single isomer, unassigned) [Example 20, 1-(4-(1H-pyrazol-4-yl)phenyl)-3-((2-fluoro-4-methoxyphenyl)amino)pyrrolidin-2-one]: the IC50 lay in the range of 100 to 2200 nM. Under `COc1nc(N2CCC(Nc3cccc(OCC4CC4)c3)C2=O)ccc1-c1cn[nH]c1` (single isomer, unassigned) [Example 215, 3-((3-(cyclopropylmethoxy)phenyl)amino)-1-(6-methoxy-5-(1H-pyrazol-4-yl)pyridin-2-yl)pyrrolidin-2-one] stands less than 10 nM; under `COc1cc(F)cc(NC2CCN(c3ccc(-c4cn[nH]c4)cn3)C2=O)c1` (single isomer, unassigned) [Example 87, 1-(5-(1H-pyrazol-4-yl)pyridin-2-yl)-3-((3-fluoro-5-methoxyphenyl)amino)pyrrolidin-2-one], 10 to 100 nM; under `CCOc1cccc(NC2CCN(c3ccc(-c4cn[nH]c4)c(OC)n3)C2=O)c1` (single isomer, unassigned) [Example 219, 3-((3-ethoxyphenyl)amino)-1-(6-methoxy-5-(1H-pyrazol-4-yl)pyridin-2-yl)pyrrolidin-2-one], less than 10 nM. Under `COc1ccc(F)c(NC2CCN(c3ccc(-c4cn[nH]c4)c(F)c3)C2=O)c1` (single isomer, unassigned) [Example 335, 1-(3-fluoro-4-(1H-pyrazol-4-yl)phenyl)-3-((2-fluoro-5-methoxyphenyl)amino) pyrrolidin-2-one] stands 10 to 100 nM. Consider `COc1cc(NC2CCN(c3ccc(-c4cn[nH]c4)nc3)C2=O)ccc1F` (single isomer, unassigned) [Example 300, 1-(6-(1H-pyrazol-4-yl)pyridin-3-yl)-3-((4-fluoro-3-methoxyphenyl)amino)pyrrolidin-2-one], for which the IC50 is 10 to 100 nM.

Consider `COc1cccc(NC2CCN(c3ccc(-c4cn[nH]c4)cc3)C2=O)c1` (single isomer, unassigned) [Example 29, 1-(4-(1H-pyrazol-4-yl)phenyl)-3-((3-methoxyphenyl)amino)pyrrolidin-2-one], for which the IC50 was less than 10 nM. The result for `O=C1C(Nc2ccc3c(c2)OC(F)(F)O3)CCN1c1ccc(-c2cn[nH]c2)cc1` (single isomer, unassigned) [Example 54, 1-(4-(1H-pyrazol-4-yl)phenyl)-3-((2,2-difluorobenzo[d][1,3]dioxol-5-yl)amino)pyrrolidin-2-one] reads 100 to 2200 nM; that for `COc1cc(F)cc(NC2CCN(c3ccc(-c4cn[nH]c4)cc3F)C2=O)c1` (single isomer, unassigned) [Example 339, 1-(2-fluoro-4-(1H-pyrazol-4-yl)phenyl)-3-((3-fluoro-5-methoxyphenyl)amino) pyrrolidin-2-one], 10 to 100 nM; that for `COc1cc(NC2CCN(c3ccc(-c4cn[nH]c4)c(C(F)(F)F)c3)C2=O)ccc1F` (single isomer, unassigned) [Example 372, 1-(4-(1H-pyrazol-4-yl)-3-(trifluoromethyl)phenyl)-3-((4-fluoro-3-methoxyphenyl)amino)pyrrolidin-2-one], 100 to 2200 nM.

For the molecule `COc1cc(F)cc(NC2CCN(c3ccc(-c4cn[nH]c4)c(Cl)c3)C2=O)c1` (single isomer, unassigned) [Example 159, 1-(3-chloro-4-(1H-pyrazol-4-yl)phenyl)-3 ((3-fluoro-5-methoxyphenyl)amino) pyrrolidin-2-one], the IC50 lay within 100 to 2200 nM. The result for `COc1cc(NC2CCN(c3ccc(-c4cn[nH]c4)c(OC)c3)C2=O)cc(OC)c1` (single isomer, unassigned) [Example 140, 3-((3,5-dimethoxyphenyl)amino)-1-(3-methoxy-4-(1H-pyrazol-4-yl)phenyl) pyrrolidin-2-one] reads 100 to 2200 nM.

These data come from patent publication US10112929B2, “Lactams as inhibitors of rock” (BRISTOL-MYERS SQUIBB COMPANY, priority 2015, dated 2018).
